Measurements taken from patent US20100261708A1 (BOEHRINGER INGELHEIM INTERNATIONAL GMBH, priority 2007, published 2010).

Target: T1, human CB2R (Homo sapiens, UniProt P34972)
T1 construct: host or cells: CHO cells
Assay: CB2R mediated modulation of cAMP synthesis
Type: cell-based
Details: not given
Method: B. CB2R Mediated Modulation of cAMP Synthesis:
Compounds of the invention were evaluated for their CB2 agonist or inverse agonistic activity in accordance with the following experimental method.
CHO cells expressing human CB2R (Euroscreen) were plated at a density of 5000 cells per well in 384 well plates and incubated overnight at 37° C. After removing the media, the cells were treated with test compounds diluted in stimulation buffer containing 1 mM IBMX, 0.25% BSA and 10 uM Forskolin. The assay was incubated for 30 minutes at 37° C. Cells were lysed and the cAMP concentration was measured using DiscoverX-XS cAMP kit, following the manufacturer's protocol. In this setting, agonists will decrease forskolin induced production of cAMP while inverse agonists will further increase forskolin induced production of cAMP. EC50 of agonists were calculated as follows. The maximal amount of cAMP produced by forskolin compared to the level of cAMP inhibited by 1 uM CP55940 is defined as 100%. […] Data was analyzed using a four-parameter logistic model. (Model 205 of XLfit 4.0).

T1 sequence (P34972 whole entry): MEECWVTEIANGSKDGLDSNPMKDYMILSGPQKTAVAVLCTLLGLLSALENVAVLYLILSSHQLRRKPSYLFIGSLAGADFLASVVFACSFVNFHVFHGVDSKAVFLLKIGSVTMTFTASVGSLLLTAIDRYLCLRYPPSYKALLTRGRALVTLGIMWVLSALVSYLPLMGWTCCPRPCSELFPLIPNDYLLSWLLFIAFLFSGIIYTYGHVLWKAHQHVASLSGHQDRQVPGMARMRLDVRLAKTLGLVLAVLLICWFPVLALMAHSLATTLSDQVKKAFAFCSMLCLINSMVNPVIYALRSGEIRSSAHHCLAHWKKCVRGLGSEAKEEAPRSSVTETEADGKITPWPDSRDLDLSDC

Row | SMILES | EC50 [nM]
1 | CC(C)(C)c1ccc2oc(N3CCCN(C(=O)c4ccc(Cl)cc4)CC3)nc2c1 [Example 3, [4-(5-tert-Butyl-benzooxazol-2-yl)-[1,4]diazepan-1-yl]-(4-chloro-phenyl)-methanone] | 0.14
2 | O=C(c1ccc(Cl)cc1)N1CCCN(c2nc3ccc(Cl)cc3s2)CC1 [Example 9, [4-(6-Chloro-benzothiazol-2-yl)-[1,4]diazepan-1-yl]-(4-chloro-phenyl)-methanone] | 30
3 | Cc1nc(NC(=O)N2CCCN(c3ncc(C(F)(F)F)cc3Cl)CC2)sc1C(C)(C)C [Example 14, 4-(3-Chloro-5-trifluoromethyl-pyridin-2-yl)-[1,4]diazepane-1-carboxylic acid (5-tert-butyl-4-methyl-thiazol-2-yl)-amide] | 0.94
4 | CC(C)(C)c1cc(NC(=O)N2CCCN(c3ncc(Cl)cc3Cl)CC2)no1 [Example 21, 4-(3,5-Dichloro-pyridin-2-yl)-[1,4]diazepane-1-carboxylic acid (5-tert-butyl-isoxazol-3-yl)-amide] | 44
5 | O=C(C1CCOCC1)N1CCCN(c2nc3cc(C(F)(F)F)ccc3s2)CC1 [Example 65] | 35
6 | CCc1cnc(N2CCCN(C(=O)Nc3cc(C(C)(C)C)on3)CC2)nc1 [Example 79, 4-(5-Ethyl-pyrimidin-2-yl)-[1,4]diazepane-1-carboxylic acid (5-tert-butyl-isoxazol-3-yl)-amide] | 6

Same assay, conditions: read-out: CB2 CAMP @EC50

Row | SMILES | EC50 [nM]
7 | CC(C)(C)c1ccc2oc(N3CCCN(C(=O)C4CCC(F)(F)CC4)CC3)nc2c1 [Example 4, [4-(5-tert-Butyl-benzooxazol-2-yl)-[1,4]diazepan-1-yl]-(4,4-difluoro-cyclohexyl)-methanone] | 0.017
8 | O=C(C1CCOCC1)N1CCCN(c2nc3cc(C(F)(F)F)ccc3o2)CC1 [Example 5, (Tetrahydro-pyran-4-yl)-[4-(5-trifluoromethyl-benzooxazol-2-yl)-[1,4]diazepan-1-yl]-methanone] | 43
9 | Cc1csc(NC(=O)N2CCCN(c3ncc(C(F)(F)F)cc3Cl)CC2)n1 [Example 6, 4-(3-Chloro-5-trifluoromethyl-pyridin-2-yl)-[1,4]diazepane-1-carboxylic acid (4-methyl-thiazol-2-yl)-amide] | 30
10 | O=C(c1ccc(Cl)cc1)N1CCCN(c2nc(-c3ccccc3)ns2)CC1 [Example 11, (4-Chloro-phenyl)-[4-(3-phenyl-[1,2,4]thiadiazol-5-yl)-[1,4]diazepan-1-yl]-methanone] | 5
11 | CC(C)(C)SCCNC(=O)N1CCCN(c2ncc(C(F)(F)F)cc2Cl)CC1 [Example 15, 4-(3-Chloro-5-trifluoromethyl-pyridin-2-yl)-[1,4]diazepane-1-carboxylic acid (2-tert-butylsulfanyl-ethyl)-amide] | 21
12 | CC(C)(C)c1cc(NC(=O)N2CCCN(c3nccc(C(F)(F)F)n3)CC2)no1 [Example 23, 4-(4-Trifluoromethyl-pyrimidin-2-yl)-[1,4]diazepane-1-carboxylic acid (5-tert-butyl-isoxazol-3-yl)-amide] | 333
13 | Cn1nc(C(C)(C)C)cc1NC(=O)N1CCCN(c2ncc(Cl)cc2Cl)CC1 [Example 28, 4-(3,5-Dichloro-pyridin-2-yl)-[1,4]diazepane-1-carboxylic acid (5-tert-butyl-2-methyl-2H-pyrazol-3-yl)-amide] | 500
14 | O=C(C1CCC(O)CC1)N1CCCN(c2nc3cc(C(F)(F)F)ccc3o2)CC1 (stereo not shown) [Example 32, (4-Hydroxy-cyclohexyl)-[4-(5-trifluoromethyl-benzooxazol-2-yl)-[1,4]diazepan-1-yl]-methanone] | 19
15 | N#Cc1cnc(N2CCCN(C(=O)C3CCOCC3)CC2)s1 [Example 34, 2-[4-(Tetrahydro-pyran-4-carbonyl)-[1,4]diazepan-1-yl]-thiazole-5-carbonitrile] | 40
16 | Cc1c(Cl)ccc2sc(N3CCCN(C(=O)N4CCOCC4)CC3)nc12 [Example 38, [4-(5-Chloro-4-methyl-benzothiazol-2-yl)-[1,4]diazepan-1-yl]-morpholin-4-yl-methanone] | 204
17 | Cc1ccc(Cl)c2sc(N3CCCN(C(=O)N4CCOCC4)CC3)nc12 [Example 39, [4-(7-Chloro-4-methyl-benzothiazol-2-yl)-[1,4]diazepan-1-yl]-morpholin-4-yl-methanone] | 2
18 | Cc1cc(Cl)cc2sc(N3CCCN(C(=O)C4CCOCC4)CC3)nc12 [Example 42, [4-(6-Chloro-4-methyl-benzothiazol-2-yl)-[1,4]diazepan-1-yl]-(tetrahydro-pyran-4-yl)-methanone] | 221
19 | Cc1ccc(Cl)c2sc(N3CCCN(C(=O)C4CCOCC4)CC3)nc12 [Example 43, [4-(7-Chloro-4-methyl-benzothiazol-2-yl)-[1,4]diazepan-1-yl]-(tetrahydro-pyran-4-yl)-methanone] | 114
20 | Cc1ccc(C)c2sc(N3CCCN(C(=O)C4CCOCC4)CC3)nc12 [Example 46, [4-(4,7-Dimethyl-benzothiazol-2-yl)-[1,4]diazepan-1-yl]-(tetrahydro-pyran-4-yl)-methanone] | 445
21 | Cc1cc(C)c2sc(N3CCCN(C(=O)C4CCOCC4)CC3)nc2c1 [Example 47, [4-(5,7-Dimethyl-benzothiazol-2-yl)-[1,4]diazepan-1-yl]-(tetrahydro-pyran-4-yl)-methanone] | 53
22 | Cc1c(Cl)ccc2sc(N3CCCN(C(=O)C4CCOCC4)CC3)nc12 [Example 48, [4-(5-Chloro-4-methyl-benzothiazol-2-yl)-[1,4]diazepan-1-yl]-(tetrahydro-pyran-4-yl)-methanone] | 3
23 | FC(F)(F)c1cnc(N2CCCN(c3nc4cc(C(F)(F)F)ccc4o3)CC2)c(Cl)c1 [Example 49, 2-[4-(3-Chloro-5-trifluoromethyl-pyridin-2-yl)-[1,4]diazepan-1-yl]-5-trifluoromethyl-benzooxazole] | 54
24 | O=C(C1CCOCC1)N1CCCN(c2nc(-c3ccccc3)cs2)CC1 [Example 53, [4-(4-Phenyl-thiazol-2-yl)-[1,4]diazepan-1-yl]-(tetrahydro-pyran-4-yl)-methanone] | 217
25 | O=C(C1CCOCC1)N1CCCN(c2ncc(CN3CCOCC3)s2)CC1 [Example 54, [4-(5-Morpholin-4-ylmethyl-thiazol-2-yl)-[1,4]diazepan-1-yl]-(tetrahydro-pyran-4-yl)-methanone] | 14
26 | O=C(N1CCCN(c2nc3ccccc3[nH]2)CC1)N1CCS(=O)(=O)CC1 [Example 56, [4-(1H-Benzoimidazol-2-yl)-[1,4]diazepan-1-yl]-(1,1-dioxo-1λ^6-thiomorpholin-4-yl)-methanone] | 327
27 | Cc1ccc2nc(N3CCCN(C(=O)C4CCOCC4)CC3)sc2c1 [Example 64, [4-(6-Methyl-benzothiazol-2-yl)-[1,4]diazepan-1-yl]-(tetrahydro-pyran-4-yl)-methanone] | 110
28 | O=C(C1CCC(F)(F)CC1)N1CCCN(c2nc3cc(C(F)(F)F)ccc3o2)CC1 [Example 67, (4,4-Difluoro-cyclohexyl)-[4-(5-trifluoromethyl-benzooxazol-2-yl)-[1,4]diazepan-1-yl]-methanone] | 10
29 | CCC(C)c1cc(NC(=O)N2CCCN(c3ncc(C(F)(F)F)cc3Cl)CC2)n(C)n1 (stereo not shown) [Example 68, 4-(3-Chloro-5-trifluoromethyl-pyridin-2-yl)-[1,4]diazepane-1-carboxylic acid (5-sec-butyl-2-methyl-2H-pyrazol-3-yl)-amide] | 14
30 | O=C(C1CCOCC1)N1CCCN(c2nc3ccc(Cl)cc3o2)CC1 [Example 70, [4-(6-Chloro-benzooxazol-2-yl)-[1,4]diazepan-1-yl]-(tetrahydro-pyran-4-yl)-methanone] | 180
31 | O=C(C1CCOCC1)N1CCCN(c2nc3cc(-c4ccccc4)ccc3o2)CC1 [Example 71, [4-(5-Phenyl-benzooxazol-2-yl)-[1,4]diazepan-1-yl]-(tetrahydro-pyran-4-yl)-methanone] | 77
32 | O=C(N1CCOCC1)N1CCCN(c2nc3cc(Cl)ccc3o2)CC1 [Example 72, [4-(5-Chloro-benzooxazol-2-yl)-[1,4]diazepan-1-yl]-morpholin-4-yl-methanone] | 490
33 | Cc1ccnc(N2CCCN(C(=O)Nc3cc(C(C)(C)C)on3)CC2)n1 [Example 81, 4-(4-Methyl-pyrimidin-2-yl)-[1,4]diazepane-1-carboxylic acid (5-tert-butyl-isoxazol-3-yl)-amide] | 344
34 | Cc1csc2ncnc(N3CCCN(C(=O)N4CCOCC4)CC3)c12 [Example 86, [4-(5-Methyl-thieno[2,3-d]pyrimidin-4-yl)-[1,4]diazepan-1-yl]-morpholin-4-yl-methanone] | 45.2
